Results as given in ChEMBL document CHEMBL1201862, “PubChem BioAssay data set” (2004).
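Each compound was tested at five concentrations against cells in 96-well plates for 48 hours. GI50 is the concentration that inhibits growth by half.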 Calls of active or inactive are those of the source. Cut-off read from the data, not from the text of the source: active = GI50 up to about 1.1 µM and inactive = higher.

Assays:
Experiment in all cases: NCI-60 cell line screen, 48 h
A549 = tested on: A549
ACHN = tested on: ACHN
CAKI-1 = tested on: CAKI-1
HOP-62 = tested on: HOP-62
M14 = tested on: M14
MDA-MB-435 = tested on: MDA-MB-435
MDA-N = tested on: MDA-N
Malme-3M = tested on: Malme-3M
OVCAR-5 = tested on: OVCAR-5
PC-3 = tested on: PC-3
RPMI-8226 = tested on: RPMI-8226
RXF 393 = tested on: RXF 393
SK-MEL-2 = tested on: SK-MEL-2
SN12C = tested on: SN12C
SNB-19 = tested on: SNB-19
SNB-75 = tested on: SNB-75
SR = tested on: SR
SW-620 = tested on: SW-620
U-251 = tested on: U-251
UACC-257 = tested on: UACC-257

Measured: GI50

ON(CCc1ccccn1)Cc1ccccc1
inactive: A549 > 100 µM | ACHN > 100 µM | CAKI-1 > 100 µM | HOP-62 > 100 µM | M14 > 100 µM | MDA-MB-435 > 100 µM | MDA-N > 100 µM | Malme-3M > 100 µM | OVCAR-5 > 100 µM | PC-3 > 100 µM | RPMI-8226 > 100 µM | RXF 393 > 100 µM | SK-MEL-2 > 100 µM | SN12C > 100 µM | SNB-19 > 100 µM | SNB-75 > 100 µM | SR > 100 µM | SW-620 > 100 µM | U-251 > 100 µM | UACC-257 > 100 µM

CN(C)c1ccc(C2SCC(=O)N2c2nc3cc4sc(N5C(=O)CSC5c5ccc(N(C)C)cc5)nc4cc3s2)cc1 (stereo not given)
inactive: A549 7.71 µM | ACHN 28.1 µM | CAKI-1 8.49 µM | HOP-62 56.6 µM | M14 51.3 µM | MDA-MB-435 28 µM | MDA-N 45.2 µM | Malme-3M > 100 µM | OVCAR-5 > 94 µM | PC-3 38.1 µM | RPMI-8226 19.5 µM | RXF 393 > 100 µM | SK-MEL-2 > 100 µM | SN12C > 20.5 µM | SNB-19 41.4 µM | SNB-75 > 90.6 µM | SR 6.62 µM | SW-620 8.02 µM | U-251 30.7 µM | UACC-257 > 25.5 µM

CC(C)/C(=N\[N+](C)(C)C)c1ccccc1
inactive: A549 > 100 µM | ACHN > 100 µM | CAKI-1 > 100 µM | HOP-62 > 100 µM | M14 > 100 µM | MDA-MB-435 > 100 µM | MDA-N > 100 µM | Malme-3M > 100 µM | OVCAR-5 > 100 µM | PC-3 > 100 µM | RPMI-8226 > 100 µM | RXF 393 > 100 µM | SK-MEL-2 > 100 µM | SN12C > 100 µM | SNB-19 > 100 µM | SNB-75 > 100 µM | SR > 100 µM | SW-620 > 100 µM | U-251 > 100 µM | UACC-257 > 100 µM
